# In PMC6010092, “Novel hits for acetylcholinesterase inhibition derived by docking-based screening on ZINC database” (Journal of Enzyme Inhibition and Medicinal Chemistry, 2018):
# Entries after “also recorded” stand apart in the source; their conditions may differ. Like-named read-outs stand apart in the source and are kept apart here.
# What was measured:
# [1] = PAMPA GIT (intestinal) permeability; assay type: in vitro ADME; conditions: −logPe, pH 6.2, 25 °C, 4 h, lipid GIT-0
# [2] = system: NEURO-2A cells; test: Neurotoxicity test, MTT-dye reduction assay; assay type: cell-based; conditions: for IC50: Mus musculus, N2a, 72-h incubation, MTT, read-out: IC50 Neuro2A; for Neurotoxicity on Neuro-2A cells (in words): concentrations up to 100 µM
# Protocol: Murine neuroblastoma NEURO-2 A cells (German collection DSMZ, Braunschweig, Germany) were cultivated under standard conditions: complete medium (90% DMEM, 10% heat-inactivated FBS, and 1 × non-essential amino acids); 37 °C and5% CO2 in fully humidified atmosphere. The cell line was kept in the logarithmic growth phase by splitting 1:4 once a week using trypsin/EDTA. About 30% of the cells grow like neuronal cells. For the experimental evaluation of the cytotoxicity NEURO-2A, cells were plated in 96-well flat-bottomed cell culture plates at the recommended density of 1 × 10^6 cells/25 cm^2. After 24 h, the cells were treated with various concentrations of the investigational compounds and after 72-h incubation, a MTT-dye reduction assay was performed. Briefly, at the end of incubation, a MTT stock solution (10 mg/ml in PBS) was added (10 µL/well). Plates were further incubated at 37 °C for 4 h. Next, the formazan crystals were dissolved by the addition of 110 µL/well 5% formic acid in 2-propanol (v/v). Absorption was measured at 580 nm wavelength on an automated ELISA reader Labexim LMR1. At least six wells per concentration were used, and data were processed using the GraphPad Prism 5.0 software 2.
# [3] = PAMPA BBB permeability; assay type: in vitro ADME; conditions: −logPe, pH 7.4, 25 °C, 4 h, lipid BBB-1
# Protocol: The intestinal and BBB permeabilities were measured by PAMPA Permeability Analyzer (pION Inc.) at the following settings: wavelength analysed 250–500 nm, pH 7.4, temperature 25 °C, permeation time 4 h, lipid formulation GIT-0 and stirring 60 rpm and BBB-1 and no stirring, respectively. […]. Carbamazepine, ketoprofen, and ranitidine were used as controls for intestinal permeability. Theophylline, progesterone, and propranolol were used as controls for BBB permeability.
# [4] = target: T1, AChE from Electrophorus electricus (eeAChE) (Electrophorus electricus, UniProt O42275); test: biochemical; assay type: binding
# T1 construct: purchased Sigma Aldrich
# T1 sequence (O42275 24-633): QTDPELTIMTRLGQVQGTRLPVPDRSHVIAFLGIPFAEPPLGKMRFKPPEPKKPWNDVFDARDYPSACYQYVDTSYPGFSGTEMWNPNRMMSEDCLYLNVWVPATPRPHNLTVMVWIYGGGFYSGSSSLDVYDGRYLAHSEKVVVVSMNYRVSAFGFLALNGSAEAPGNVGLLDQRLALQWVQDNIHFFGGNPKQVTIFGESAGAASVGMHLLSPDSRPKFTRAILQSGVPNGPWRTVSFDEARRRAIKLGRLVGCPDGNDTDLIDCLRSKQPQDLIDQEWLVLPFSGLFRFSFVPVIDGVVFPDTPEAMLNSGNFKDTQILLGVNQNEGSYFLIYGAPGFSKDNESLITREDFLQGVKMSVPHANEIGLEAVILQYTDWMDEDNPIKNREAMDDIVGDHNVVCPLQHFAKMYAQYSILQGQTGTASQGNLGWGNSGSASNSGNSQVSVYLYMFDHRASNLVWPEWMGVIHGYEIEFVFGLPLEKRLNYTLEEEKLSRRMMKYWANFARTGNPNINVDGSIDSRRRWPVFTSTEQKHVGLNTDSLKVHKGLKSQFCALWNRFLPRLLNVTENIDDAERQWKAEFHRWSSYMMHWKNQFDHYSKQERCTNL
# Protocol: The ITC measurements[40] were performed on NanoITC tool (TA Instruments, Lindon, UT) with 190 µL sample cell and 50 µL syringe. […] The tested compounds were prepared in 5 mM stock solutions in ethanol and diluted to 0.5 mM in 50 mM Tris-HCl pH 7.4 buffer. All samples were degassed prior the experiments. The AChE solution was placed into the sample cell and titrated by the tested compounds in 25 steps of 2 µL at 5 min intervals at 25 °C. The blank samples (buffer lacking AChE) were titrated at the same conditions. The corresponding Kd values were calculated using NanoAnalyze software (TA Instruments, Lindon, UT).
# [5] = system: NEURO-2A cells; conditions: read-out: IC50 Neuro2A; cited from earlier work
# [6] = cited from earlier work
SMILES,pPe pH 6.2 GIT PAMPA [1],IC50 [2] [nM],Neurotoxicity on Neuro-2A cells (in words) [2],pPe pH 7.4 BBB PAMPA [3],"Kd ([4]; ITC, read-out: Kd) [nM]","Kd ITC ([4]; 25 °C, pH 7.4)","Kd ([4]; 25 °C, pH 7.4, read-out: Kd ITC) [nM]",IC50 [5] [nM],CL [6],VD^ss [6],t1/2 [6]
"CN(Cc1ccccc1-c1ccccc1)C(=O)CCn1ccccc1=O [Compound 1, N-Methyl-3-(2-oxo-1-pyridyl)-N-[(2-phenylphenyl)methyl]propanamide]",4.268,> 100000,non-toxic,4.540,525,–,–,–,–,–,–
"O=C(CCn1ccc2ccccc21)NCCCn1cnc2ccccc21 [Compound 2, N-[3-(benzimidazol-1-yl)propyl]-3-indol-1-yl-propanamide]",4.339,> 100000,absence of toxicity; also recorded: non-toxic,4.452,618,–,–,–,–,–,–
"O=C(CCn1nc(-c2ccccc2)ccc1=O)NCCc1ccccc1 [Compound 3, 3-(6-Oxo-3-phenylpyridazin-1(6H)-yl)-N-phenethylpropanamide]",4.207,> 100000,non-toxic,4.294,555,–,–,–,–,–,–
"Cn1cc(CNCc2ccc3ncccc3c2)c(-c2ccccc2F)n1 [Compound 4, 1-[3-(2-fluorophenyl)-1-methyl-pyrazol-4-yl]-N-(6-quinolylmethyl) methanamine]",4.251,35000,–,4.258,618,–,–,–,–,–,–
"O=C(Cn1ccc2ccccc21)NCCOc1cccc2cccnc12 [Compound 5, 2-indol-1-yl-N-[2-(8-quinolyloxy)ethyl]acetamide]",4.230,> 100000,non-toxic,4.146,517,–,–,–,–,–,–
"Cn1cc(CNC(=O)N2CCC(C(N)=O)CC2)c(-c2ccccc2)n1 [Compound 6, N^1-((1-methyl-3-phenyl-1H-pyrazol-4-yl)methyl)piperidine-1,4-dicarboxamide]",4.428,> 100000,non-toxic,5.008,613,–,–,–,–,–,–
"Cn1cc(CNCCc2cccc3cccnc23)c(-c2cccnc2)n1 [Compound 7, N-((1-methyl-3-(pyridin-3-yl)-1H-pyrazol-4-yl)methyl)-2-(quinolin-8-yl)ethanamine]",4.246,> 100000,non-toxic,4.267,577,–,–,–,–,–,–
"COc1ccc(CC(=O)N[C@@H](CO)[C@@H](O)c2ccc(N)cc2)cc1 [Compound 8, N-((1S,2S)-1-(4-aminophenyl)-1,3-dihydroxypropan-2-yl)-2-(4-methoxyphenyl)acetamide]",4.469,> 100000,non-toxic,4.731,682,–,–,–,–,–,–
"O=C(Cn1c(=O)[nH]c(=O)c2ccccc21)NCCc1cccc(F)c1 [Compound 9, 2–(2,4-dioxoquinazolin-1-yl)-N-[2-(3-fluorophenyl)ethyl]acetamide]",4.361,> 100000,–,4.628,–,does not interact; also recorded: Non-binder,–,–,–,–,–
"CC(C)n1cc(CC(=O)NCCc2ccc(O)cc2)c2ccccc21 [Compound 10, N-[2-(4-hydroxyphenyl)ethyl]-2-(1-isopropylindol-3-yl)acetamide]",4.202,53000,toxic,4.311,–,–,735,–,–,–,–
"COc1ccc2c3c1O[C@H]1C[C@@H](O)C=C[C@@]31CCN(C)C2 [GAL, galantamine]",–,–,–,–,–,–,–,> 50000,5.60[47] mL/min/kg,2.30[47] L/kg,5.30[47] h
